Experimental data from patent US20090117089A1, “GLYCOLIPIDS AND ANALOGUES THEREOF AS ANTIGENS FOR NK T CELLS” (The Rockefeller University, priority 2005, published 2009).
Blank lines part the entries; values can stand above or below the compound they belong to.

How the values were obtained:
[1] = target: T1, human CD1d dimers / invariant T cell receptor of human NKT cells (Homo sapiens, UniProt P15813); assay: In vitro CD1d-dimer assay using a human NKT cell line; assay type: binding; details: dimers loaded with 40 μM glycolipid
T1 construct: soluble divalent human CD1d-IgG1 fusion protein; IgG1 (immunoglobulin fusion partner that makes the protein divalent); purchased BD Pharmingen / BD Biosciences (DimerX)
Description: One mg of soluble divalent human CD1d-IgG1 fusion protein (human CD1d-IgG1 dimers, BD Pharmingen) were incubated overnight with […] of each glycolipid at 32° C. and at neutral pH according to the manufacturer's protocol. The glycolipid-loaded CD1d-IgG1 dimers were incubated with human NKT cells at 4° C. for 60 minutes, followed by incubation with PE-coupled anti-mouse IgG1 mAb (A85-1). The cells were also surface stained with a PerCP-coupled anti-CD3 mAb (BD Pharmingen, San Diego, Calif.).
CD1d-dimer binding assay. CD1d dimer (DimerX, BD Biosciences) was incubated overnight with 40 μM of each glycolipid at 32° C. and at neutral pH according to the manufacturer's protocol. The loaded CD1d dimers were incubated with a human NKT cell line at 4° C. for 60 min, followed by incubation with APC-conjugated secondary antibody. The cells were also co-stained with mAbs against the invariant NKT cell receptor (Vα24/Vβ11). At least 2×10^5 lymphocyte-gated events were acquired to allow reliable estimation of NKT cells.

J558 tumor cells = assay: Tumor protection assay, J558 plasmacytoma; assay type: in vivo, mouse; details: for protection from J558 tumor challenge / tumor growth after single agent alone: challenge 14 days later; for tumor growth after single agent alone: glycolipid alone (2 or 0.2 μg/mouse) or irradiated cells alone; for protective immunity to irradiated tumor injected i.v. (adjuvant comparison): vs αCD40 and poly IC
Description: (§1) 2×10^7 irradiated J558-Ld^− cells, were injected i.v. or s.c. into Balb/c mice with or without α-Gal Cer as a DC maturation stimulus. In some experiments we compared α-Gal Cer to agonistic anti-CD40 mAb (1C10, 25 μg i.p.) or the toll like receptor ligands, poly IC ([…], Invivogen) or lipopolysaccharide (20 μgm, Sigma). The mice had been given CFSE-labeled PICTL CD8^+ T cells i.v. 1 d earlier, or were naive animals. In some experiments, mice were sacrificed 3 d later, and T cell division and activation in spleen were analyzed by flow cytometry. Additionally, 7 d or 2 months later, 5×10^6 live J558 tumor cells were inoculated subcutaneously. 5×10^6 Meth A fibrosarcoma was used as a control tumor for challenge. Tumor cell growth was measured with calipers every other day. Mice were scored positive for tumor as soon as tumors became palpable and grew progressively. Mice were euthanized when tumor size exceeded 400 mm^2.
Mice vaccinated with J558 and α-Gal Cer were injected with ascites containing 1 mg of rat monoclonal anti-CD4 (clone GK 1.5) or anti-CD8 (clone 53-6.72). The mice received three daily injections, the first one i.v. one day before the challenge, and two i.p. injections on the day of the challenge and one day after the challenge. Control mice received 1 mg of Rat IgG (Jackson Laboratories). The depletion was monitored by staining with anti-CD4 and anti-CD8 antibodies followed by flow cytometry (BD PharMingen).
In vivo delivery of dying tumor cells, DC maturation stimuli, and tumor protection assay. Different doses of irradiated J558-Ld− cells were injected i.v. into naïve BALB/c mice either alone or with αGalCer (2 or 0.2 μg/mouse) or 24 (2 or 0.2 μg/mouse) as a DC maturation stimulus. We also compared the glycolipids to agonistic anti-CD40 mAb (1C10, 25 μg, i.p.) or the Toll-like receptor ligands, poly IC (50 μg i.p., Invivogen). 14 d later, 5×10^6 live J558 tumor cells were inoculated s.c. Tumor cell growth was measured with calipers every other day. Mice were scored positive for tumor, as soon as tumors became palpable and grew progressively. Mice were euthanized when tumor size exceeded 400 mm^2.

A20 tumor cells = assay: Tumor protection assay, A20; assay type: in vivo, mouse; details: A20 challenge s.c.
Description: Mice were also injected i.v. with PBS, 2 μg α-Gal Cer, 5×10^6 irradiated A20 cells with or without 2 μg α-Gal Cer i.v. Two weeks later, mice were challenged with a lethal tumorogenic dose of 5×10^6 live A20 s.c. The mice were monitored every other day for tumor growth and were scored positive when the tumors were palpable.

CD8+ P1CTL T cells = assay: Proliferation and differentiation of P1A-specific P1CTL CD8+ T cells; assay type: in vivo, mouse
Description: CD8^+ P1A-specific, T cells were prepared from meshed cell suspensions of TCR transgenic lymph nodes and spleen by depleting B220, CD4, F4/80 and MHC class II-expressing cells using sheep anti-rat IgG Dynabeads®. For CFSE labeling (Molecular Probes), the cells at 10^7/ml in PBS were incubated with 5 μM CFSE for 10 min at 37° C. The reaction was stopped by washing three times with PBS.
as §1
T-cell division, phagocytosis of CFSE-labeled tumor cells and acquisition of cell surface-activation markers were determined by flow cytometry. Briefly, spleens were harvested and low-density splenocytes were stained with CD11c-APC and CD8α-PE, CD11b-PE, B220-PE or CD4-PE for the up-take examination. For in vivo proliferation of P1CTL T-cells, spleens were harvested and the splenocytes suspension was staining with CD8α-Cy, Vα8α-PE, CD25-PE, CD62L-PE. For intracellular cytokine staining, splenocytes were stimulated in vitro with 1 µg/ml P1A peptide in 5 μg/ml brefeldin A (Sigma-Aldrich) at 37° C. for 4 hrs. The cells were first stained with CD8α-Cy-Chrome™, fixed and permeabilized with cytofix-cytoperm buffer (BD Biosciences), and stained with PE conjugated mAbs to IL-2 or IFN-γ.

[2] = 0.2 μg/mouse with 1×10^7 irradiated J558Ld− tumor cells i.v.
[3] = 2 μg/mouse with 1×10^7 irradiated J558Ld− tumor cells i.v.

binding of loaded CD1d dimers to Vα24/Vβ11 invariant TCR expressing NKT cells [1]: to a lesser extent than α-GalCer
Compound: 3-O-sulfo-alpha-galactosylceramide [Compound 24]
protection from J558 tumor challenge (J558 tumor cells; [2]): 100%
protection from J558 tumor challenge (J558 tumor cells; [3]): 100%
mice protected by direct vaccination (J558 tumor cells; dying tumor cells with compound 24): 80-100%
tumor growth after single agent alone (J558 tumor cells): grew progressively within 7-10 days
maturation stimulus compared with ligation of CD40, TLR4 and TLR3 (J558 tumor cells; irradiated tumor cells i.v.): superior relative to other DC stimuli
protective immunity to irradiated tumor injected i.v. (adjuvant comparison) (J558 tumor cells): only adjuvant that could independently induce protective immunity

Compound: CCCCCCCCCCCCCCCCCCCCCCCCCC(=O)N[C@@H](CO[C@H]1O[C@H](CO)[C@H](O)[C@H](O)[C@H]1O)[C@H](O)[C@H](O)CCCCCCCCCCCCCC [α-GalCer, 2S,3S,4R-1-O(α-galactopyranosyl)-2(N-hexacosanoylamino)-1,3,4-octadecanetriol]
protection from J558 tumor challenge (J558 tumor cells; [2]): 100%
protection from J558 tumor challenge (J558 tumor cells; [3]): 100%
mice fully protected after transfer of CD11c+ DCs (J558 tumor cells; 1.5×10^6 DCs from donors given dying J558− with α-Gal Cer, 10 of 17 mice): 58%
tumor immunity after depletion of CD4+ or CD8+ T cells (J558 tumor cells; 8 weeks after vaccination with J558 and α-Gal Cer): significantly abrogated tumor immunity
dependence of vaccination on route (J558 tumor cells; J558 and α-Gal Cer, i.v. vs s.c.): effective only when tumor cells were injected by the i.v. and not the s.c. route
specificity of protection (J558 vs Meth A challenge) (J558 tumor cells; dying J558− and α-Gal Cer): protected mice against a challenge of J558 but not Meth A cells
protection against MHC class I positive or negative J558 challenge (J558 tumor cells; dying MHC class I− J558 cells and α-Gal Cer): protected against the MHC class I^+ J558 cells but not to MHC class F J558 tumor cells
tumor immunity in Jα281−/− mice (lack NKT cells) (J558 tumor cells; dying cells plus glycolipid): failed to develop immunity
tumor growth after single agent alone (J558 tumor cells): grew progressively within 7-10 days
duration of tumor immunity (J558 tumor cells; single vaccination with irradiated J558 and α-Gal Cer, challenge 2 and 4 months later): long-lived tumor immunity
therapeutic effect (J558 tumor cells; vaccinated 3 days after injection of live tumor cells): therapeutic response manifest when the tumor dose was 1×10^6 but not 5×10^6 cells
mice protected and tumor-free after J558 challenge (J558 tumor cells; vaccination with irradiated J558− cells combined with α-Gal Cer i.v., 22 of 25 mice): 88%
protective immunity to irradiated tumor injected i.v. (adjuvant comparison) (J558 tumor cells): only adjuvant that could independently induce protective immunity
protective immunity compared with anti-CD40, LPS and poly IC (J558 tumor cells; with irradiated J558− cells): more efficient at inducing protective immunity than the other compounds tested
tumor growth after glycolipid alone (J558 tumor cells; α-Gal Cer alone i.v., challenge 5×10^6 live J558 s.c.): grew progressively within 7-10 days
tumor outcome after combined vaccination (A20 tumor cells; irradiated A20 cells and α-Gal Cer i.v.): protected and remained tumor-free
tumor outcome after glycolipid alone (A20 tumor cells; α-Gal Cer pretreatment alone): development of palpable tumors
stimulation of naïve CD8+ P1CTL T cells in culture by isolated DCs (CD8+ P1CTL T cells; DCs from mice given dying J558 with α-Gal Cer): much more effective at stimulating proliferation of naïve CD8^+ T cells in culture
P1CTL proliferation in vivo after DC transfer (CD8+ P1CTL T cells; DCs isolated 4 hours after immunization, 3 days): P1CTL proliferation was detected only in response to DCs from mice given tumor with α-Gal Cer
IFN-γ and IL-2 production on restimulation with P1A peptide (CD8+ P1CTL T cells; T cells stimulated in vivo in presence of α-Gal Cer): significantly more IFN-γ and IL-2
P1CTL T cell proliferation in vivo (CD8+ P1CTL T cells; irradiated J558− plus α-Gal Cer vs J558− alone, 3 days): proliferated more extensively
